How the values were obtained:
Format in all cases: ADME, organism-based
[1] = Cmax in BALB/c mouse at 10 mg/kg, po; parameters: route oral, dose 10 mg/kg; details: in vivo
[2] = Volume of distribution at steady state in BALB/c mouse at 2 mg/kg, iv; details: in vivo, read-out: Vdss
[3] = AUC in BALB/c mouse at 10 mg/kg, po; parameters: dose 10 mg/kg; details: in vivo
[4] = Oral bioavailability in BALB/c mouse at 10 mg/kg; details: in vivo

Cmax [1] [µM] | Vd [2] [L/kg] | AUC [3] [µM·h] | bioavailability [4] [%] | Compound
2.1 | 1.3 | 11.3 | 56 | O=C(O)[C@H]1CC[C@H](C(=O)N2CC[C@](c3ccc(C(OCc4c(F)cccc4F)(C(F)(F)F)C(F)(F)F)cc3)(S(=O)(=O)c3ccc(F)cc3)C2)CC1
4.9 | 1.7 | 36.8 | 101 | O=C(O)[C@H]1CC[C@H](C(=O)N2CC[C@](c3ccc(C(OCC4CCCCC4)(C(F)(F)F)C(F)(F)F)cc3)(S(=O)(=O)c3ccc(F)cc3)C2)CC1

From ChEMBL document CHEMBL4699456 (Bioorg Med Chem Lett, 2020)
